The values that follow come from US8618290B2, “HSP90 inhibitors” (Takeda Pharmaceutical Company Limited, priority 2008, dated 2013).

The target of the assay is human HSP90a (recombinant N-terminal nucleotide binding domain) (Homo sapiens (Human), UniProt P07900). Description: Competition fluorescence polarization binding assay with TSD-FP probe. Conditions: method of Example A-1; incubation time not stated; read-out: Binding Affinity IC50. Here is the method:
The reaction can be followed kinetically using fluorescence (excitation λ=485 nm; emission λ=538 nm). The binding affinity of the test compound to HSP90 is determined by the changes in the polarized fluorescence; the intensity of the polarized fluorescence is proportional to the fraction of bound probe. A novel small molecule fluorescence probe, (S,E)-5-(2-(2-amino-7-(4-fluoro-2-(6-methoxypyridin-2-yl)phenyl)-4-methyl-7,8-dihydroquinazolin-5(6H)-ylideneaminooxy)ethylcarbamoyl)-2-(6-hydroxy-3-oxo-3H-xanthen-9-yl)benzoic acid (TSD-FP probe) was specifically developed for the assay. Inhibition constants (IC50) may be calculated by non-linear curve fitting of the compound concentrations and fluorescence intensities to the standard IC50 equation.
The sequence of human wild-type HSP90a is well known in the art; see, Chen B. et al. Genomics 2005.86:627-637. The gene encoding HSP90a can be isolated from RNA, cDNA or cDNA libraries. In this case, the gene encoding residues 9-236 of image clone 5270926 of HSP90α (ATCC) was isolated. This portion of the gene encoding a section of human HSP90a that includes the N-terminal nucleotide binding domain of human HSP90a was cloned into pET28a vector (Novagen). The DNA sequence of the vector is shown in SEQ ID NO: 1. Expression from this vector produced a protein consisting of the recombinant N-terminal nucleotide binding domain of HSP90a with a cleavable 6′-histidine tag and a cleavage site at the N-terminus The amino acid sequence of this recombinant protein is shown in SEQ ID NO: 2.
Recombinant human N-terminal truncated His6-HSP90a was expressed in E. coli (BL21) cells with IPTG induction. Cell paste from 24×60 mL tubes (grown in a multi-tube airlift fermentor) was lysed using an automated sample lyser. Briefly, the pellet in each tube was suspended in 21 mL of lysis buffer consisting of 50 mM Tris pH 7.9, 50 mM NaCl, 1 mM MgCl2, 0.6 g/L Lysozyme (Sigma), 100 μL/L Benzonase (Novagen). […] After incubation, 5 M NaCl was added to bring the final salt concentration to 400 mM. The tubes were sonicated for 50 seconds and then centrifuged at 3400 rpm for 50 min. The supernatants were pooled and 4 ml of ProBond Ni resin (Invitrogen) was added. After at least 30 minutes, the resin was spun down, washed with 25 mM Tris pH 7.6, 400 mM NaCl, 20 mM imidazole, poured into a column and washed with 10 column volumes of the same buffer. The protein was eluted from the column using 3 column volumes of 25 mM Tris pH 7.6, 400 mM NaCl, 400 mM imidazole. The eluate was loaded onto a Supedex 200 column (GE Healthcare) equilibrated with 25 mM Tris pH 7.6, 250 mM NaCl, 0.25 mM TCEP, 1 mM EDTA and peak fractions were pooled and concentrated to ˜6 mg/mL using 10 kDA MWCO centrifugal concentrators (Millipore). Aliquots were flash frozen in liquid nitrogen and stored at −80° C. All purification was done at 4° C.
A fluorescein labeled small molecule was designed and synthesized as a probe (TSD-FP probe) for the determination of the binding affinity of the test compound to HSP90 proteins. The synthesis of the small molecule, (S,E)-2-amino-7-(4-fluoro-2-(6-methoxypyridin-2-yl)phenyl)-4-methyl-7,8-dihydroquinazolin-5(6H)-one O-2-aminoethyl oxime (Compound 24) was described in Examples 24 and 25 above. The TSD-FP probe was prepared according to the following procedure:
The inhibitory effect of the compounds of the invention against HSP90a was determined by fluorescence polarization assay. The assay was run in a black 384-well-plate and in an assay buffer comprising 25 mM Hepes pH 7.3, 150 mM NaCl, 0.1 mM EDTA, 0.01% Brij35, 1 mM DTT.
To each test well, an aliquot of buffer, 2 μl of test compound in 10% DMSO, 4 μl of 6.25 nM of TSD FP probe, 4 μl of 12.5 nM of purified HSP90a protein were added. […] For negative control, no inhibitor was added.
For `COc1cccc(-c2cc(F)ccc2[C@H]2Cc3nc(N)nc(C)c3/C(=N/OC[C@H]3O[C@@H](OC)[C@H](O)[C@@H]3O)N2)n1` (mixture of isomers) [Compound 45, (R,Z)-2-amino-7-(4-fluoro-2-(6-methoxypyridin-2-yl)phenyl)-4-methyl-7,8-dihydropyrido[4,3-d]pyrimidin-5(6H)-one O-((2R,3S,4R,5R)-3,4-dihydroxy-5-methoxytetrahydrofuran-2-yl)methyl oxime], the IC50 worked out at 10 nM.

For `COc1cccc(-c2cc(F)ccc2[C@H]2Cc3nc(N)nc(C)c3/C(=N/OC[C@H](O)CO)N2)n1` [Compound 33, (R,Z)-2-Amino-7-(4-fluoro-2-(6-methoxypyridin-2-yl)phenyl)-4-methyl-7,8-dihydropyrido[4,3-d]pyrimidin-5(6H)-one O—(R)-2,3-dihydroxypropyl oxime], the IC50 came out at 4 nM.

Take `COc1cccc(-c2cc(F)ccc2[C@H]2Cc3nc(N)nc(C)c3/C(=N/OCC(CO)CO)N2)n1` [Compound 35, (R,Z)-2-Amino-7-(4-fluoro-2-(6-methoxypyridin-2-yl)phenyl)-4-methyl-7,8-dihydropyrido[4,3-d]pyrimidin-5(6H)-one O-3-hydroxy-2-(hydroxymethyl)propyl oxime]: the IC50 stood at 13 nM.

For the compound `COc1cccc(-c2cc(F)ccc2[C@H]2Cc3nc(N)nc(C)c3/C(=N/OCC[C@H](O)CO)N2)n1` [Compound 37, (R,Z)-2-amino-7-(4-fluoro-2-(6-methoxypyridin-2-yl)phenyl)-4-methyl-7,8-dihydropyrido[4,3-d]pyrimidin-5(6H)-one O—(S)-3,4-dihydroxybutyl oxime], the IC50 turned out to be 6 nM.

Take `COc1cccc(-c2cc(F)ccc2[C@H]2Cc3nc(N)nc(C)c3/C(=N/OC3C[C@@H](O)[C@@H](O)C3)N2)n1` (stereo partly drawn) [Compound 58, (7R,Z)-2-amino-7-(4-fluoro-2-(6-methoxypyridin-2-yl)phenyl)-4-methyl-7,8-dihydropyrido[4,3-d]pyrimidin-5(6H)-one O-(3R,4S)-3,4-dihydroxycyclopentyl oxime]: the IC50 turned out to be 5 nM.

Turning to `COc1cccc(-c2cc(F)ccc2[C@H]2Cc3nc(N)nc(C)c3/C(=N/OCC3C[C@@H](O)[C@@H](O)C3)N2)n1` (stereo partly drawn) [Compound 59, (7R,Z)-2-amino-7-(4-fluoro-2-(6-methoxypyridin-2-yl)phenyl)-4-methyl-7,8-dihydropyrido[4,3-d]pyrimidin-5(6H)-one O-((3R,4S)-3,4-dihydroxycyclopentyl)methyl oxime], the IC50 is 8 nM.

In the case of `COc1cccc(-c2cc(F)ccc2[C@H]2Cc3nc(N)nc(C)c3/C(=N/O)N2)n1` [Compound 61, (R,Z)-2-amino-7-(4-fluoro-2-(6-methoxypyridin-2-yl)phenyl)-4-methyl-7,8-dihydropyrido[4,3-d]pyrimidin-5(6H)-one oxime], the IC50 was 3 nM.

For the compound `COc1cccc(-c2cc(F)ccc2[C@H]2Cc3nc(N)nc(C)c3/C(=N/OCC3CCC(O)CC3)N2)n1` (stereo partly drawn) [Compound 65, (R,Z)-2-amino-7-(4-fluoro-2-(6-methoxypyridin-2-yl)phenyl)-4-methyl-7,8-dihydropyrido[4,3-d]pyrimidin-5(6H)-one O-((1s,4S)-4-hydroxycyclohexyl)methyl oxime], the IC50 amounted to 10 nM.

Regarding `COc1cccc(-c2cc(F)ccc2[C@H]2Cc3nc(N)nc(C)c3/C(=N/OCCCO)N2)n1` [Compound 78, (R,Z)-2-amino-7-(4-fluoro-2-(6-methoxypyridin-2-yl)phenyl)-4-methyl-7,8-dihydropyrido[4,3-d]pyrimidin-5(6H)-one O-3-hydroxypropyl oxime], the IC50 is 4 nM.

On to `COc1cccc(-c2cc(F)ccc2[C@H]2Cc3nc(N)nc(C)c3/C(=N/OCCCCO)N2)n1` [Compound 79, (R,Z)-2-amino-7-(4-fluoro-2-(6-methoxypyridin-2-yl)phenyl)-4-methyl-7,8-dihydropyrido[4,3-d]pyrimidin-5(6H)-one O-4-hydroxybutyl oxime], for which the IC50 came out at 6 nM.

Take `COc1cccc(-c2cc(F)ccc2[C@H]2Cc3nc(N)nc(C)c3/C(=N/OCC(=O)N(C)C)N2)n1` [Compound 83, (R,Z)-2-(2-amino-7-(4-fluoro-2-(6-methoxypyridin-2-yl)phenyl)-4-methyl-7,8-dihydropyrido[4,3-d]pyrimidin-5(6H)-ylideneaminooxy)-N,N-dimethylacetamide]: the IC50 came to 8 nM.

On to `COc1cccc(-c2cc(F)ccc2[C@H]2Cc3nc(N)nc(C)c3/C(=N/OCC(=O)N3CC[C@@H](F)C3)N2)n1` [Compound 85, 2-((Z)—((R)-2-amino-7-(4-fluoro-2-(6-methoxypyridin-2-yl)phenyl)-4-methyl-7,8-dihydropyrido[4,3-d]pyrimidin-5(6H)-ylidene)aminooxy)-1-((R)-3-fluoropyrrolidin-1-yl)ethanone], for which the IC50 amounted to 4 nM.

For the compound `COc1cccc(-c2cc(F)ccc2[C@H]2Cc3nc(N)nc(C)c3/C(=N/O[C@@H](CCO)C(=O)N(C)C)N2)n1` [Compound 93, (S)-2-((Z)—((R)-2-amino-7-(4-fluoro-2-(6-methoxypyridin-2-yl)phenyl)-4-methyl-7,8-dihydropyrido[4,3-d]pyrimidin-5(6H)-ylidene)aminooxy)-4-hydroxy-N,N-dimethylbutanamide], the IC50 amounted to 8 nM.

Turning to `COc1cccc(-c2cc(F)ccc2[C@H]2Cc3nc(N)nc(C)c3/C(=N/OCC(=O)N(C)C[C@H](O)CO)N2)n1` [Compound 96, 2-((Z)—((R)-2-amino-7-(4-fluoro-2-(6-methoxypyridin-2-yl)phenyl)-4-methyl-7,8-dihydropyrido[4,3-d]pyrimidin-5(6H)-ylidene)aminooxy)-N—((S)-2,3-dihydroxypropyl)-N-methylacetamide], the IC50 is 13 nM.

For `COc1cccc(-c2cc(F)ccc2[C@H]2Cc3nc(N)nc(C)c3/C(=N/OCC(=O)N(C)CCO)N2)n1` [Compound 99, (R,Z)-2-(2-amino-7-(4-fluoro-2-(6-methoxypyridin-2-yl)phenyl)-4-methyl-7,8-dihydropyrido[4,3-d]pyrimidin-5(6H)-ylideneaminooxy)-N-(2-hydroxyethyl)-N-methylacetamide], the IC50 came to 8 nM.
